Measurements: ChEMBL document CHEMBL4842390, “Amino-Heterocycle Tetrahydroisoquinoline CXCR4 Antagonists with Improved ADME Profiles via Late-Stage Buchwald Couplings” (ACS Med Chem Lett, 2021)

Experiments:
[1] = target: C-X-C chemokine receptor type 4 (Homo sapiens, UniProt P61073); test: Antagonist activity at CXCR4 receptor in human CCRF-CEM cells assessed as inhibition of SDF-1alpha-induced calcium release preincubated for 25 mins followed by SDF-1alpha addition and monitered for 90 sec; format: functional, cell-based
[2] = Metabolic stability in human liver microsomes assessed as parent compound remaining incubated for 10 mins in presence of NADPH; format: ADME, Microsome; conditions: read-out: Stabilty
[3] = Metabolic stability in rat liver microsomes assessed as parent compound remaining incubated for 10 mins in presence of NADPH; format: ADME, Microsome; conditions: read-out: Stabilty
[4] = Metabolic stability in mouse liver microsomes assessed as parent compound remaining incubated for 10 mins in presence of NADPH; format: ADME, Microsome; conditions: read-out: Stabilty
Cytochrome P450 2D6 = Cytochrome P450 2D6 (Homo sapiens, UniProt P10635); test: Inhibition of human recombinant CYP2D6 expressed in insect cells using AMMC as substrate preincubated for 30 mins followed by NADPH regenerating system addition and measured after 45 mins by fluorescence based assay; format: ADME
Cytochrome P450 3A4 = Cytochrome P450 3A4 (Homo sapiens, UniProt P08684); test: Inhibition of CYP3A4 (unknown origin); format: ADME
cells = conditions: Homo sapiens, CCRF-CEM
Description: Antagonist activity at muscarinic acetylcholine receptor in human CCRF-CEM cells assessed as inhibition of acetylcholine-induced calcium release preincubated for 25 mins followed by acetylcholine addition and monitered for 90 sec

[5] = Permeability of the compound at pH 7.4 incubated for 4 hrs by PAMPA; format: ADME; conditions: read-out: permeability
[6] = AUC (0 to 8 hrs) in CD-1 mouse at 30 mg/kg, po or at 3 mg/kg, iv measured up to 8 hrs by UPLC-MS/MS analysis; format: ADME, organism-based; parameters: dose 30 mg/kg, time <=8; conditions: in vivo
[7] = Volume of distribution in CD-1 mouse at 30 mg/kg, po or at 3 mg/kg, iv by UPLC-MS/MS analysis; format: ADME, organism-based; conditions: in vivo
[8] = Half life in CD-1 mouse at 30 mg/kg, po or at 3 mg/kg, iv by UPLC-MS/MS analysis; conditions: in vivo
[9] = Oral bioavailability in CD-1 mouse at 30 mg/kg measured upto 8 hrs by UPLC-MS/MS analysis; format: ADME, organism-based; conditions: in vivo
Cytochrome P450 2C9 = Cytochrome P450 2C9 (Homo sapiens, UniProt P11712); test: Inhibition of CYP2C9 (unknown origin); format: ADME
Sequence of Cytochrome P450 2C9 (P11712 whole entry): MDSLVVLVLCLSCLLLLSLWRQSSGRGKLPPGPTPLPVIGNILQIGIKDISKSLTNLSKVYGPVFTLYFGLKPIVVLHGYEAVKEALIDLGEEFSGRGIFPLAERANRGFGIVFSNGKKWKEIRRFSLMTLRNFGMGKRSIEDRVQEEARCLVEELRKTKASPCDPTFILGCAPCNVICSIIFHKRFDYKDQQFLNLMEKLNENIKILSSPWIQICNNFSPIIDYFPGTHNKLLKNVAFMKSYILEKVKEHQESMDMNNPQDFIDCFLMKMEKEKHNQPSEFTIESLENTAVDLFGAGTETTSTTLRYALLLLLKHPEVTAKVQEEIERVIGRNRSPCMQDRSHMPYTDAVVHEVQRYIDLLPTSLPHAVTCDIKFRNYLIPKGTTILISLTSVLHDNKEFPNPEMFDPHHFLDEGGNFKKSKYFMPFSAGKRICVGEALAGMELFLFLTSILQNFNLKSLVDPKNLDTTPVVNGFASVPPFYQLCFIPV

Sequence of Cytochrome P450 3A4 (P08684 whole entry): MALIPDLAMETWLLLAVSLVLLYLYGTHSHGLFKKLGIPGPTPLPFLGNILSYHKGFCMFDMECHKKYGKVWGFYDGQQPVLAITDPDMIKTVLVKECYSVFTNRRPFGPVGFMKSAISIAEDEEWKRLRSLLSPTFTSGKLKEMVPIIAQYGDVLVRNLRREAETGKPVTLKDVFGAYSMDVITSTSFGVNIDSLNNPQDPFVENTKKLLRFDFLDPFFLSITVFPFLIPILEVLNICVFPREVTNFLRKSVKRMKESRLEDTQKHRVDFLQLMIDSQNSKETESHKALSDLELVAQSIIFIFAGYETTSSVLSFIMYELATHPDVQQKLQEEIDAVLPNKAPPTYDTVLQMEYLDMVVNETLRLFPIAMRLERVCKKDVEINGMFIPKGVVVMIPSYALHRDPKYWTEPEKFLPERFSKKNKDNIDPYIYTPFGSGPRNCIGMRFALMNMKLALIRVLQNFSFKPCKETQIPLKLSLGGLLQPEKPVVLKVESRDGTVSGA
Sequence of Cytochrome P450 2D6 (P10635 whole entry): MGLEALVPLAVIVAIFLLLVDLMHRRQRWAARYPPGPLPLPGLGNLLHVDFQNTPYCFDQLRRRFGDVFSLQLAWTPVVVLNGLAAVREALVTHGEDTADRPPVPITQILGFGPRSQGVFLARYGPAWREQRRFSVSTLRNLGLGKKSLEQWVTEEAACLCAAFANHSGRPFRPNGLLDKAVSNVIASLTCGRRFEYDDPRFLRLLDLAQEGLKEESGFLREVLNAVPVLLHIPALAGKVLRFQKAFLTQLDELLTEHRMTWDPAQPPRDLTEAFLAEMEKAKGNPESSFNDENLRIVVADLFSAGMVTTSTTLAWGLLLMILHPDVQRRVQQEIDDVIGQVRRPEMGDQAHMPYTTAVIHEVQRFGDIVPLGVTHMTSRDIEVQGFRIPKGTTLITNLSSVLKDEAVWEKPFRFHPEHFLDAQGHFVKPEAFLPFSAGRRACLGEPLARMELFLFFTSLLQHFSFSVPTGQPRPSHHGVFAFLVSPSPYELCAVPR
Sequence of C-X-C chemokine receptor type 4 (P61073 whole entry): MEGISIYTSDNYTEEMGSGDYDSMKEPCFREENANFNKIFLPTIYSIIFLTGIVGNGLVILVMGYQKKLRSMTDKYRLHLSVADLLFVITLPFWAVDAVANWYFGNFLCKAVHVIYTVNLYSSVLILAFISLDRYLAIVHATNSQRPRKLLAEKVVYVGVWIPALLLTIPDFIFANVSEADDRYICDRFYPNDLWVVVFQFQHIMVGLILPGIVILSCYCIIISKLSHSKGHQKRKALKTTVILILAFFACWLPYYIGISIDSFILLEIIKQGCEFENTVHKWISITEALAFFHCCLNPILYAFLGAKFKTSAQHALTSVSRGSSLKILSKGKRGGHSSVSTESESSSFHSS

Compound | IC50 [1] | remaining at 10 min [2] | remaining at 10 min [3] | remaining at 10 min [4] | IC50 (Cytochrome P450 2D6) | IC50 (Cytochrome P450 3A4) | IC50 (cells) | Papp at 4 h [5] | AUC(0-t) [6] | Vd [7] | half-life [8] | bioavailability [9] | IC50 (Cytochrome P450 2C9)
CN(C[C@@H]1Cc2c(cccc2NC2CCNCC2)CN1)[C@H]1CCCc2cccnc21 | 1.67 µM | 79.9% | 26.2% | 12.4% | > 20 µM | > 20 µM | > 16.7 µM |  |  |  |  |  | 
CN1C[C@@H]2CN(c3cccc4c3C[C@H](CN(C)[C@H]3CCCc5cccnc53)NC4)C[C@@H]2C1 | 0.00956 µM | 100% | 35.3% | 32.9% | > 20 µM | > 20 µM | > 33.3 µM | 0.5 ×10⁻⁶ cm/s |  |  |  |  | 
CN1CCC(N(C)c2cccc3c2C[C@H](CN(C)[C@H]2CCCc4cccnc42)NC3)CC1 | 0.0134 µM | 88.8% | 6.52% |  | > 20 µM | > 20 µM | > 16.7 µM | 1 ×10⁻⁶ cm/s |  |  |  |  | 
CN1CC[C@H]2CN(c3cccc4c3C[C@H](CN(C)[C@H]3CCCc5cccnc53)NC4)C[C@H]21 | 0.0114 µM | 87.3% | 1.78% | 24% | 18.6 µM | > 20 µM | 11.9 µM | 0.9 ×10⁻⁶ cm/s |  |  |  |  | 
NCCCCN(Cc1nc2ccccc2[nH]1)[C@H]1CCCc2cccnc21 [MAVORIXAFOR] |  |  |  |  |  |  |  |  | 101 ng·h/mL | 32.2 L/kg | 3.1 h | 2.4% | 
CN(C[C@H]1Cc2c(cccc2N[C@H]2CC[C@H](N)CC2)CN1)[C@H]1CCCc2cccnc21 |  | 100% | 75% | 100% | > 20 µM | > 20 µM | 0.826 µM |  |  |  |  |  | 
CN(C[C@H]1Cc2c(cccc2NC2CCNCC2)CN1)[C@H]1CCCc2cccnc21 | 0.0181 µM | 75% | 9.79% | 10.9% | > 20 µM | > 20 µM | > 16.7 µM |  |  |  |  |  | 
CN(C)C1CCN(c2cccc3c2C[C@H](CN(C)[C@H]2CCCc4cccnc42)NC3)CC1 | 0.0359 µM | 78.4% | 52.4% | 70.2% | > 20 µM | > 20 µM | > 16.7 µM | 4.4 ×10⁻⁶ cm/s |  |  |  |  | 6.67 µM

Continued by falling IC50 (Cytochrome P450 2D6), values first:

IC50 [1] | remaining at 10 min [2] | remaining at 10 min [3] | remaining at 10 min [4] | IC50 (Cytochrome P450 2D6) | IC50 (Cytochrome P450 3A4) | IC50 (cells) | Papp at 4 h [5] | AUC(0-t) [6] | Vd [7] | half-life [8] | bioavailability [9] | IC50 (Cytochrome P450 2C9) | Compound
0.0187 µM | 97.6% | 11.2% |  | 17.3 µM | > 20 µM | 2.9 µM | 1.9 ×10⁻⁶ cm/s |  |  |  |  |  | CN(C[C@H]1Cc2c(cccc2N2C[C@H]3CCN(C)[C@H]3C2)CN1)[C@H]1CCCc2cccnc21
0.0109 µM | 67.5% | 4.55% | 18.5% | 15.4 µM | > 20 µM | 12.3 µM | 1.6 ×10⁻⁶ cm/s |  |  |  |  |  | CN(C)C1CCN(c2cccc3c2C[C@H](CN(C)[C@H]2CCCc4cccnc42)NC3)C1 (single isomer, unassigned; 37)
0.0103 µM | 86.7% | 38.1% | 54.7% | 7.81 µM | > 20 µM | 6.39 µM |  |  |  |  |  |  | CN(C[C@H]1Cc2c(cccc2N2C[C@H]3CNC[C@H]3C2)CN1)[C@H]1CCCc2cccnc21
0.0334 µM | 80.8% | 38.4% | 70.3% | 3.96 µM | > 20 µM | > 33.3 µM |  |  |  |  |  |  | CN(C[C@H]1Cc2c(cccc2N2CCC(N)CC2)CN1)[C@H]1CCCc2cccnc21
0.0104 µM |  | 3.88% | 28.2% | 3.67 µM | > 20 µM | > 5.56 µM | 1.4 ×10⁻⁶ cm/s |  |  |  |  |  | CN(C)C1CCN(c2cccc3c2C[C@H](CN(C)[C@H]2CCCc4cccnc42)NC3)C1 (single isomer, unassigned; 36)
